In the supplement of paper PMC9663587:

Assays:
Test in all cases: GRmax, 72 h; higher = less effect;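 also: breast cell lines in 384-well plates, nine doses across a 10^4 range, Dye Drop imaging of viable cells vs DMSO and time-zero plates, GR 0 means no net growth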
HTERT_HME1 = test system: HTERT_HME1
MDAMB453 = test system: MDAMB453
HCC1937 = test system: HCC1937
SUM159 = test system: SUM159
PDXHCI002 = test system: PDXHCI002
HCC1806 = test system: HCC1806
MDAMB330 = test system: MDAMB330
AU565 = test system: AU565
CAL851 = test system: CAL851
MGH312 = test system: MGH312
MDAMB415 = test system: MDAMB415
BT474 = test system: BT474

| Compound | GRmax, 72 h (HTERT_HME1) [GR] | GRmax, 72 h (MDAMB453) [GR] | GRmax, 72 h (HCC1937) [GR] | GRmax, 72 h (SUM159) [GR] | GRmax, 72 h (PDXHCI002) [GR] | GRmax, 72 h (HCC1806) [GR] | GRmax, 72 h (MDAMB330) [GR] | GRmax, 72 h (AU565) [GR] | GRmax, 72 h (CAL851) [GR] | GRmax, 72 h (MGH312) [GR] | GRmax, 72 h (MDAMB415) [GR] | GRmax, 72 h (BT474) [GR] |
| --- | --- | --- | --- | --- | --- | --- | --- | --- | --- | --- | --- | --- |
| Cc1cc(C(C)Nc2ccccc2)c2nc(N3CCOCC3)cc(=O)n2c1 (configuration not stated) [TGX221] (max 10 µM) | 1.03 | 0.828 | 0.838 | 1.02 | 0.855 | 0.982 | 0.858 | 0.607 | 0.99 | -0.158 | 0.184 | 0.524 |
| CN(C)C/C=C/C(=O)Nc1ccc(C(=O)N2CCC[C@@H](Nc3ncc(Cl)c(-c4c[nH]c5ccccc45)n3)C2)cc1 [THZ531] (max 1 µM) | -0.217 | -0.294 | -0.282 | 0.627 | -0.198 | -0.489 | -0.968 | -0.527 | -0.196 | -0.947 | -0.344 | -0.861 |
| CCC(=O)Nc1ccc(C(=O)Nc2ccc(Nc3ncc4c(n3)N(C)c3ccc(C)cc3C(=O)N4C)cc2)cc1 [FMF-03-145-1] | -0.0813 | 0.0994 | -0.0558 | -0.12 | -0.102 | -0.09 | -0.0541 | -0.153 | -0.136 | -0.365 | 0.0653 | -0.227 |
| CN(C)C/C=C/C(=O)Nc1ccc(O[C@@H]2CCC[C@@H](Nc3ncc(Cl)c(-c4c[nH]c5ccccc45)n3)C2)cc1 [BSJ-01-175] (max 10 µM) | -0.28 | -0.723 | -0.603 | -0.473 | -0.297 | -0.592 | -0.971 | -0.777 | -0.535 | -0.985 | -0.491 | -0.962 |
| CN1CCN(C(=O)c2ccc3cc(CCNc4ncnc5ccc(C#N)cc45)ccc3c2)CC1 [senexin b] (max 10 µM) | 0.748 | 0.148 | 0.394 | 0.881 | 1.06 | 0.817 | 0.466 | 0.76 | 0.615 | 0.168 | 0.609 | 0.107 |
| CC(=O)Nc1cccc(-n2c(=O)n(C3CC3)c(=O)c3c(Nc4ccc(I)cc4F)n(C)c(=O)c(C)c32)c1 (max 1 µM) | 0.203 | 0.0489 | 0.689 | 0.404 | 0.642 | 0.704 | 0.251 | 1.01 | 0.234 | 1.12 | 0.285 | 1.36 |
| CN(C)C/C=C/C(=O)Nc1ccc(C(=O)Nc2cccc(Nc3ncc(Cl)c(-c4c[nH]c5ccccc45)n3)c2)cc1 [THZ1] (max 1 µM) | -0.455 | -0.256 | -0.386 | -0.122 | -0.193 | -0.658 | -0.945 | -0.64 | -0.549 | -0.939 | -0.421 | -0.658 |
| CCNC(=O)c1noc(-c2cc(C(C)C)c(O)cc2O)c1-c1ccc(CN2CCOCC2)cc1 [Luminespib/NVP-AUY922] (max 1 µM) | -0.335 | -0.499 | -0.187 | -0.0637 | -0.281 | -0.175 | -0.344 | -0.231 | -0.384 | -0.685 | -0.305 | -0.505 |
| C[C@@H]1COCCN1c1cc(C2([S@](C)(=N)=O)CC2)nc(-c2cc[nH]c3nccc2-3)n1 [AZD6738] (max 10 µM) | 0.287 | -0.162 | 0.298 | 0.497 | 0.734 | -0.326 | 0.12 | 0.312 | 0.144 | 0.348 | 0.522 | 0.267 |
| C=CC(=O)Nc1ccc(C(=O)Nc2[nH]nc3c2CN(C(=O)N[C@H](CN(C)C)c2ccccc2)C3(C)C)cc1 [YKL-5-124] (max 10 µM) | -0.144 | -0.503 | -0.205 | -0.137 | -0.129 | -0.469 | -0.765 | -0.563 | -0.592 | -0.919 | -0.0129 | -0.566 |
| CC[C@@]1(O)C(=O)OCc2c1cc1n(c2=O)Cc2cc3c(CN(C)C)c(O)ccc3nc2-1 [Topotecan] (max 10 µM) | -0.34 | -0.529 | -0.428 | -0.454 | -0.701 | -0.546 |  |  | -0.296 |  |  |  |
| CCCCOc1c(C(=O)c2c(F)cc(C)cc2F)c[nH]c2nncc1-2 (max 10 µM) | -0.0276 | 0.31 | -0.0492 | 0.26 | 0.217 | 0.0151 | 0.129 | -0.158 | -0.012 | 0.0975 | 0.24 | 0.503 |
| CC(=O)O[C@H]1C(=O)[C@@]2(C)[C@H]([C@H](OC(=O)c3ccccc3)[C@]3(O)C[C@H](OC(=O)[C@H](O)[C@@H](NC(=O)c4ccccc4)c4ccccc4)C(C)=C1C3(C)C)[C@]1(OC(C)=O)CO[C@@H]1C[C@@H]2O [Paclitaxel] (max 1 µM) | -0.224 | 0.0356 | 0.0104 | -0.201 | -0.512 | -0.211 | -0.438 | -0.498 | -0.346 | -0.508 | -0.344 | -0.636 |
| CCN1CCN(Cc2ccc(Nc3ncc(F)c(-c4cc(F)c5nc(C)n(C(C)C)c5c4)n3)nc2)CC1 (max 10 µM) | 0.0156 | -0.765 | 0.302 | -0.0575 | -0.677 | -0.444 | -0.0152 | -0.321 | -0.224 | -0.461 | -0.0085 | 0.301 |
| CN(C)C(=O)c1cc2cnc(Nc3ccc(N4CCNCC4)cn3)nc2n1C1CCCC1 [LEE011/Ribociclib] (max 10 µM) | 0.292 | 0.189 | 1.03 | 0.436 | 0.508 | 0.682 | 0.157 | 0.244 | 1.04 | 0.894 | 0.231 | 0.583 |
| Cc1nc(Nc2ncc(C(=O)Nc3c(C)cccc3Cl)s2)cc(N2CCN(CCO)CC2)n1 [Dasatinib] (max 10 µM) | -0.0749 | 0.549 | 0.0153 | 0.732 | 0.0322 | -0.0992 | 0.556 | 0.26 | -0.244 | 0.0774 | 0.342 | -0.42 |
